Measured values: ChEMBL document CHEMBL3769309, “Design, synthesis and biological evaluation of bisthiazole-based trifluoromethyl ketone derivatives as potent HDAC inhibitors with improved cellular efficacy” (Eur J Med Chem, 2016)

What was measured:
Histone deacetylase 1 = Histone deacetylase 1 (Homo sapiens, UniProt Q13547); assay: Inhibition of full length His6-tagged GST-fused recombinant human HDAC1 expressed in High5 insect cells using Ac-Lys-Tyr-Lys (e-acetyl)-AMC as substrate after 24 hrs by fluorescence assay; format: cell-based
Sequence of Histone deacetylase 1 (Q13547 whole entry, the tested form may be a part): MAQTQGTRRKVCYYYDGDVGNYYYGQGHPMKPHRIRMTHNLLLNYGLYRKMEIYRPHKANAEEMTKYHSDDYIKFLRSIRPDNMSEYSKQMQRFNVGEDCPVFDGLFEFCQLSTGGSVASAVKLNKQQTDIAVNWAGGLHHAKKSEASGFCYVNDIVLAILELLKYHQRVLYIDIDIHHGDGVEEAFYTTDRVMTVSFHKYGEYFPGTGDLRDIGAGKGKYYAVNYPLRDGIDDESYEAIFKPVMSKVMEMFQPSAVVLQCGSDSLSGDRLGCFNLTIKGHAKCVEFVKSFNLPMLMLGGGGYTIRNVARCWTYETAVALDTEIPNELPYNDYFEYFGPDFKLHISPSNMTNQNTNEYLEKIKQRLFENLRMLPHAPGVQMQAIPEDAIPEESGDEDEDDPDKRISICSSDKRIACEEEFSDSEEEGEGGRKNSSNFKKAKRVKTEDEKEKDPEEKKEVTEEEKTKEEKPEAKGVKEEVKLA

Histone deacetylase 3 = Histone deacetylase 3 (Homo sapiens, UniProt O15379); assay: Inhibition of full length His6-tagged GST-fused recombinant human HDAC3 expressed in High5 insect cells using Ac-Lys-Tyr-Lys (e-acetyl)-AMC as substrate after 24 hrs by fluorescence assay; format: cell-based
Sequence of Histone deacetylase 3 (O15379 whole entry, the tested form may be a part): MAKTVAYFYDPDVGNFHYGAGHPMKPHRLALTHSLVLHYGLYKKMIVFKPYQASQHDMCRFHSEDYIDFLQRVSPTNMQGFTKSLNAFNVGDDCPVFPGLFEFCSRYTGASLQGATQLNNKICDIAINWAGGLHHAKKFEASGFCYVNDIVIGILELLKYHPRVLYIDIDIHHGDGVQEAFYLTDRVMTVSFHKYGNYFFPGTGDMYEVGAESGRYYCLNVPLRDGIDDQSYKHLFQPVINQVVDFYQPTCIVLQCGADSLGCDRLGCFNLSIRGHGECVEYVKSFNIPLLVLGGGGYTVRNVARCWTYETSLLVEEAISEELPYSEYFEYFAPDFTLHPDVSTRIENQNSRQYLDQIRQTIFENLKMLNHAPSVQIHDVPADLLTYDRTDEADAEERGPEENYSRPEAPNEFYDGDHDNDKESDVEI

Histone deacetylase 4 = Histone deacetylase 4 (Homo sapiens, UniProt P56524); assay: Inhibition of full length His6-tagged GST-fused recombinant human HDAC4 expressed in High5 insect cells using Ac-Lys-Tyr-Lys (e-acetyl)-AMC as substrate after 24 hrs by fluorescence assay; format: cell-based
Sequence of Histone deacetylase 4 (P56524 whole entry, the tested form may be a part): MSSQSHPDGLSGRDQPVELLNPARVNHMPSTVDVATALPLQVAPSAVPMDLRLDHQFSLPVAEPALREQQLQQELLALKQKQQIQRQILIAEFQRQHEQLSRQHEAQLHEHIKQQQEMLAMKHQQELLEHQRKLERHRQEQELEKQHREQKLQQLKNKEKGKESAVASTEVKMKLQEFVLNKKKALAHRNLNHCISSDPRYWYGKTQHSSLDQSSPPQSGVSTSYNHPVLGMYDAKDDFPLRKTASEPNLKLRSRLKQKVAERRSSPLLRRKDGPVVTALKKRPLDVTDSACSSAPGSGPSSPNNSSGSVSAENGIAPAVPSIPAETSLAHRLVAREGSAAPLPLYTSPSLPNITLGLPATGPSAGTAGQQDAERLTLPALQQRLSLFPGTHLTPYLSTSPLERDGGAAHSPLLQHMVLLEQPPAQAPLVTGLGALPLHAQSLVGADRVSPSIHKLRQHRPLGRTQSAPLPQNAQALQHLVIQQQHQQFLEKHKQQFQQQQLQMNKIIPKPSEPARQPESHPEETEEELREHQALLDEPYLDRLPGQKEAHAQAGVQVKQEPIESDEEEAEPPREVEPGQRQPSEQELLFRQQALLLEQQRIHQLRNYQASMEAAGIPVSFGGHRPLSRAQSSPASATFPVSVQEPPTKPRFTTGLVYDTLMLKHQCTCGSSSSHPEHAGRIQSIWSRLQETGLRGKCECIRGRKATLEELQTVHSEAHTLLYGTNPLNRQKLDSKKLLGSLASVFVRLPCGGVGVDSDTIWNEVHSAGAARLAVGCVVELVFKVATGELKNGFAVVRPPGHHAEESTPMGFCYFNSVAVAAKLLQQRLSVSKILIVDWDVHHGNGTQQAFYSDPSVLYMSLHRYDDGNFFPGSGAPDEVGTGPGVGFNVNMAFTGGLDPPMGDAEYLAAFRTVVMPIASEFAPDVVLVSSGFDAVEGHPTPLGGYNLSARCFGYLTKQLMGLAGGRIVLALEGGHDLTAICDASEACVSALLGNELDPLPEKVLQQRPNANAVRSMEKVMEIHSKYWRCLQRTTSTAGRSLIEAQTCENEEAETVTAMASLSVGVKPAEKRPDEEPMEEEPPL

[1] = target: T1, Protein deacetylase HDAC6 (Homo sapiens, UniProt Q9UBN7); assay: Inhibition of full length His6-tagged GST-fused recombinant human HDAC6 expressed in High5 insect cells using Boc-Lys (e-acetyl)-AMC as substrate after 3 hrs by fluorescence assay; format: cell-based
T1 sequence (Q9UBN7 whole entry): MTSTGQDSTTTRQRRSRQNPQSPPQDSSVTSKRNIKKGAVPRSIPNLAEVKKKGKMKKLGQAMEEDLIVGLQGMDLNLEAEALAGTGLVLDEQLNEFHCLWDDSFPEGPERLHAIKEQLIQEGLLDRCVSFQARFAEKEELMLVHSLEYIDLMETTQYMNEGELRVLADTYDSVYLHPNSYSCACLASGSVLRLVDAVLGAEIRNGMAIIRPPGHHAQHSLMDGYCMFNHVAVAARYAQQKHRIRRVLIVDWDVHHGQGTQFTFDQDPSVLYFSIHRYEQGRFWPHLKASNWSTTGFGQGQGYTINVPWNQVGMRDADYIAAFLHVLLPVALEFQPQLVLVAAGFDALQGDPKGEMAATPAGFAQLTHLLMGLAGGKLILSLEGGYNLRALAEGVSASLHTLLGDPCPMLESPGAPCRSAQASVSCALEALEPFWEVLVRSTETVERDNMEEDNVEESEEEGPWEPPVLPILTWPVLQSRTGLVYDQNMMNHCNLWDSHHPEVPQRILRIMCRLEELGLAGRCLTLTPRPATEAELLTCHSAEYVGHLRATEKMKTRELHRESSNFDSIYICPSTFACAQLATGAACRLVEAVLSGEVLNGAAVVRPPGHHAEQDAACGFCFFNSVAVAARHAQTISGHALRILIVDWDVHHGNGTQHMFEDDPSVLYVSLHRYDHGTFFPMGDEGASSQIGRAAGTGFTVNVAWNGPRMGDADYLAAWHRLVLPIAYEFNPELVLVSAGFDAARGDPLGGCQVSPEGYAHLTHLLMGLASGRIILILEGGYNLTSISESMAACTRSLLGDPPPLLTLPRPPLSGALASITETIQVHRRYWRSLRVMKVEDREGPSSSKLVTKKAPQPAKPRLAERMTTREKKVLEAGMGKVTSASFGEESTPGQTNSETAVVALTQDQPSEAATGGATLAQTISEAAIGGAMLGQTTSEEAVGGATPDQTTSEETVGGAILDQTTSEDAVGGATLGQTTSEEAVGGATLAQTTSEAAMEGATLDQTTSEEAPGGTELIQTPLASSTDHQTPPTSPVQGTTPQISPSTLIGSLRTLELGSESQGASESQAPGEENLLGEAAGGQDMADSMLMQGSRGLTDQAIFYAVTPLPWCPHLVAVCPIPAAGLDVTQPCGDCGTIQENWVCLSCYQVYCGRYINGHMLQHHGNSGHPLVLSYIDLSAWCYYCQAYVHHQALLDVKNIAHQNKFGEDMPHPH

RPMI-8226 [2] = assay: Induction of apoptosis in human RPMI8226 cells assessed as early apoptotic cells at 1 uM after 48 hrs by annexin V-FITC/propidium iodide staining-based flow cytometry (reference value: 6.3%); format: functional
RPMI-8226 [3] = assay: cells; format: functional; details: Homo sapiens, RPMI-8226, 48 h
RPMI-8226 [4] = assay: Induction of apoptosis in human RPMI8226 cells assessed as increase in cleaved PARP level after 24 hrs by Western immunoblotting method; format: functional, cell-based
RPMI-8226 [5] = assay: Induction of apoptosis in human RPMI8226 cells assessed as dead cells at 0.3 uM after 48 hrs by annexin V-FITC/propidium iodide staining-based flow cytometry (reference value: 2%); format: functional
[6] = Antiproliferative activity against human MM1S cells after 72 hrs by CellTiter 96 aqueous non-radioactive cell proliferation assay; format: functional, cell-based; details: MM1.S
[7] = Antiproliferative activity against human RPMI8226 cells after 72 hrs by CellTiter 96 aqueous non-radioactive cell proliferation assay; format: functional, cell-based; details: RPMI-8226, 72 h
[8] = Antiproliferative activity against human NCI-H929 cells after 72 hrs by CellTiter 96 aqueous non-radioactive cell proliferation assay; format: functional, cell-based; details: NCI-H929, 72 h
LP-1 = assay: Antiproliferative activity against human LP-1 cells after 72 hrs by CellTiter 96 aqueous non-radioactive cell proliferation assay; format: functional, cell-based; details: LP-1, 72 h
[9] = Antiproliferative activity against human Mino cells after 72 hrs by CellTiter 96 aqueous non-radioactive cell proliferation assay; format: functional, cell-based
[10] = Antiproliferative activity against human JeKo1 cells after 72 hrs by CellTiter 96 aqueous non-radioactive cell proliferation assay; format: functional, cell-based; details: JeKo-1, 72 h
RPMI-8226 [11] = assay: Induction of apoptosis in human RPMI8226 cells assessed as late apoptotic cells at 0.3 uM after 48 hrs by annexin V-FITC/propidium iodide staining-based flow cytometry (reference value: 4.4%); format: functional
RPMI-8226 [12] = assay: Induction of apoptosis in human RPMI8226 cells assessed as viable cells at 0.3 uM after 48 hrs by annexin V-FITC/propidium iodide staining-based flow cytometry (reference value: 87.2%); format: functional; details: RPMI-8226, 48 h, read-out: Activity
RPMI-8226 [13] = assay: Induction of apoptosis in human RPMI8226 cells assessed as early apoptotic cells at 0.3 uM after 48 hrs by annexin V-FITC/propidium iodide staining-based flow cytometry (reference value: 6.3%); format: functional
RPMI-8226 [14] = assay: Induction of apoptosis in human RPMI8226 cells assessed as dead cells at 1 uM after 48 hrs by annexin V-FITC/propidium iodide staining-based flow cytometry (reference value: 2%); format: functional
RPMI-8226 [15] = assay: Induction of apoptosis in human RPMI8226 cells assessed as late apoptotic cells at 1 uM after 48 hrs by annexin V-FITC/propidium iodide staining-based flow cytometry (reference value: 4.4%); format: functional
RPMI-8226 [16] = assay: Induction of apoptosis in human RPMI8226 cells assessed as viable cells at 1 uM after 48 hrs by annexin V-FITC/propidium iodide staining-based flow cytometry (reference value: 87.2%); format: functional; details: RPMI-8226, 48 h, read-out: Activity

`O=C(NCCCCC(=O)C(F)(F)F)c1nc(-c2nccs2)sc1Cc1ccccc1` gave an IC50 (Histone deacetylase 1) of 66.1 nM, an IC50 (Histone deacetylase 3) of 65.1 nM and an IC50 (Histone deacetylase 4) of 68.2 nM. For the same molecule, the IC50 [1] was 58.4 nM.

With `O=C(NCCCCCNC(=O)c1nc(-c2nccs2)sc1C1CC1)c1cccc(-c2noc(C(F)(F)F)n2)c1` the IC50 (Histone deacetylase 1) was > 10000 nM, the IC50 (Histone deacetylase 3) was > 10000 nM and the IC50 (Histone deacetylase 4) was > 10000 nM. For the same molecule, the IC50 [1] was > 10000 nM.

For `CC(C)Cc1sc(-c2nccs2)nc1C(=O)NCCCCC(=O)C(F)(F)F`, the IC50 (Histone deacetylase 4) was 120 nM.

For `O=C(NCCCCC(=O)C(F)(F)F)c1nc(-c2nccs2)sc1C1CC1`, the Activity (RPMI-8226 [2]) was 13.4%, the viability at 3 µM (RPMI-8226 [3]) was 21.1% and the Activity (RPMI-8226 [4]) was “Dose-dependent effect”. The Activity (RPMI-8226 [5]) was 2.8%, the IC50 (Histone deacetylase 4) was 31.5 nM and the IC50 [6] was 390 nM. The IC50 [7] was 85 nM, the IC50 [8] was 1230 nM and the IC50 (LP-1) was 370 nM. It also gave an IC50 [9] of 120 nM, an IC50 [10] of 64 nM and an Activity (RPMI-8226 [11]) of 23.9%. The viability at 0.3 µM (RPMI-8226 [12]) was 57.8%, the Activity (RPMI-8226 [13]) was 15.4% and the Activity (RPMI-8226 [14]) was 7.7%. The Activity (RPMI-8226 [15]) was 50.7% and the viability at 1 µM (RPMI-8226 [16]) was 28.2%.

Molecule `O=C(NCCCCCC(=O)C(F)(F)F)c1nc(-c2nccs2)sc1C1CC1` has an IC50 (Histone deacetylase 4) of 133 nM.

With `O=C(NO)NCCCCNC(=O)c1nc(-c2nccs2)sc1C1CC1` the IC50 (Histone deacetylase 4) was > 10000 nM.

In the case of `O=C(CCCCCCC(=O)Nc1ccccc1)NO` [VORINOSTAT], the IC50 [6] is reported as 820 nM.

For `O=C(NCCCC(=O)C(F)(F)F)c1nc(-c2nccs2)sc1C1CC1`, the IC50 (Histone deacetylase 4) was > 10000 nM.

With `Cc1cnc(-c2nc(C(=O)NCCCCC(=O)C(F)(F)F)c(C3CC3)s2)s1` the IC50 (Histone deacetylase 4) was 32 nM and the IC50 [1] was 23.4 nM.

`O=C(NCCCCC(=O)C(F)(F)F)c1nc(-c2nc3c(s2)CCCC3)sc1C1CC1` showed an IC50 (Histone deacetylase 4) of 23.4 nM.

In the case of `Nc1ccccc1NC(=O)CCCCNC(=O)c1nc(-c2nccs2)sc1C1CC1`, the IC50 (Histone deacetylase 4) is reported as 2090 nM.

In the case of `O=C(NCCCCC(O)C(F)(F)F)c1nc(-c2nccs2)sc1C1CC1` (stereo not drawn), the IC50 (Histone deacetylase 1) is reported as > 10000 nM, the IC50 (Histone deacetylase 3) is reported as 8860 nM and the IC50 (Histone deacetylase 4) is reported as > 10000 nM. For the same molecule, the IC50 [1] was > 10000 nM.
